# According to publication PMC8758714, “Effective prediction of biosynthetic pathway genes involved in bioactive polyphyllins in Paris polyphylla” (Communications Biology, 2022):
# Tested on: T1, PpUGT73CR1
# T1 construct: gene UGT73CR1; tag removal not mentioned
# Assay: HPLC quantification of product
# Type: biochemical, Paris polyphylla var. yunnanensis
# Conditions: 5 mM UDP-glucose, 50 mM Tris-HCl pH 8.0, 37 °C, 30 min, 20-400 µM acceptor
# Source text: HPLC quantification of product on PpUGT73CR1
SMILES,Km (product trillin) [µM],Km (product floribundasaponin A) [µM]
C[C@@H]1CC[C@@]2(OC1)O[C@H]1C[C@H]3[C@@H]4CC=C5C[C@@H](O)CC[C@]5(C)[C@H]4CC[C@]3(C)[C@H]1[C@@H]2C [diosgenin],53.7 ± 9.37,–
C[C@@H]1CC[C@@]2(OC1)O[C@H]1C[C@H]3[C@@H]4CC=C5C[C@@H](O)CC[C@]5(C)[C@H]4CC[C@]3(C)[C@@]1(O)[C@@H]2C [pennogenin],–,73.4 ± 8.16
